Source: ChEMBL document CHEMBL1201862, “PubChem BioAssay data set” (2004)
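Cells were grown in 96-well plates and exposed to each compound for 48 hours at five concentrations; endpoints were interpolated linearly between bracketing concentrations, or set to the highest concentration if not reached. GI50: concentration for 50% inhibition of growth.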 Activity calls are given as the source filed them. No stated cut-off is given here; in the data, active = GI50 up to about 1.1 µM and inactive = higher.

Columns and labels:
Assay in all cases: NCI tumour cell line growth inhibition, 48 h
[1] = tested on: A498
[2] = tested on: UO-31
[3] = tested on: HCC 2998
[4] = tested on: SNB-19
[5] = tested on: SK-MEL-5
[6] = tested on: OVCAR-4
[7] = tested on: HOP-92
[8] = tested on: NCI-H23
[9] = tested on: SF-295
[10] = tested on: OVCAR-8
[11] = tested on: MOLT-4
[12] = tested on: U-251
[13] = tested on: HOP-62
[14] = tested on: COLO 205
[15] = tested on: NCI-H226
[16] = tested on: SNB-75
[17] = tested on: SK-MEL-28

Measured: GI50

CC1CC2(CCC1OCc1ccccc1)OCCO2 (centres undefined)
inactive: [1] > 100 µM | [2] > 100 µM | [3] > 100 µM | [4] > 100 µM | [5] > 100 µM | [6] > 100 µM | [7] > 100 µM | [8] > 100 µM | [9] > 100 µM | [10] > 100 µM | [11] > 100 µM | [12] > 100 µM | [13] > 100 µM | [14] > 100 µM

COc1ccc2c(c1)CCC1C3(CCCC21C)OCCO3 (centres undefined)
inactive: [1] 29.6 µM | [2] 16.9 µM | [15] 17.4 µM | [3] 22.8 µM | [16] 19.8 µM | [4] 28.9 µM | [17] 20.2 µM | [5] 15.6 µM | [6] 29.4 µM | [7] 15.1 µM | [8] 15.6 µM | [9] 19.3 µM | [10] 17.5 µM | [11] 14.4 µM | [12] 15.9 µM | [13] 13.8 µM | [14] 17.9 µM

CCOC(=O)N1CCN(P(=O)(Nc2ccc3[nH]c(NC(=O)OC)nc3c2)Oc2ccccc2)CC1 (centres undefined)
inactive: [1] > 100 µM | [2] > 100 µM | [15] > 100 µM | [3] > 100 µM | [16] 77.6 µM | [17] > 100 µM | [6] > 100 µM | [7] > 100 µM | [8] > 100 µM | [10] > 100 µM | [11] > 100 µM | [12] > 100 µM | [14] > 100 µM

CC/C(C)=C1\CCC(CN(C)C)C1=O (centres undefined)
inactive: [1] 20.6 µM | [2] 20.2 µM | [15] > 100 µM | [3] 25.2 µM | [16] 16.3 µM | [4] > 100 µM | [17] 22.9 µM | [5] 33.3 µM | [6] 17.6 µM | [7] 23.2 µM | [8] 21.2 µM | [9] > 100 µM | [10] 27.6 µM | [11] 26.7 µM | [13] 42.2 µM

CCCCCCCCCCCCCCNCC(OCC)OCC
inactive: [1] 14.4 µM | [2] 10.7 µM | [15] 18.4 µM | [3] 13.4 µM | [16] 10.4 µM | [4] 16.5 µM | [17] 16.9 µM | [5] 13.9 µM | [6] 13.6 µM | [7] 11.5 µM | [8] 16.1 µM | [9] 16.7 µM | [10] 18.5 µM | [12] 15.1 µM | [13] 16.5 µM | [14] 14.4 µM

N#C/C(=C1\N=NC(N)=C(c2ccc(Cl)cc2)C1=O)c1ccc(Cl)cc1
inactive: [1] > 100 µM | [2] > 100 µM | [15] > 100 µM | [3] > 100 µM | [16] > 100 µM | [4] > 100 µM | [17] > 100 µM | [6] > 100 µM | [7] > 100 µM | [8] > 100 µM | [9] > 100 µM | [10] > 100 µM | [11] > 100 µM | [12] > 100 µM | [13] > 100 µM | [14] > 100 µM

CN(C)C(=S)/N=c1\ssc(=S)n1C1CCCCC1
inactive: [1] 37.2 µM | [2] 61.1 µM | [15] 52.5 µM | [3] 37.1 µM | [16] 42.7 µM | [4] 57.7 µM | [17] 36.1 µM | [5] 12.4 µM | [6] 39.4 µM | [7] 35.2 µM | [8] 44 µM | [9] 60.5 µM | [10] 21.4 µM | [11] 18.2 µM | [12] 17 µM | [13] > 100 µM

COC(=O)C1C(=O)NC2(C)CC1c1ccccc1O2 (centres undefined)
inactive: [1] > 100 µM | [2] > 100 µM | [15] > 100 µM | [3] > 100 µM | [16] 62.7 µM | [4] > 100 µM | [17] > 100 µM | [5] > 100 µM | [6] > 100 µM | [7] > 100 µM | [8] > 100 µM | [9] > 100 µM | [10] > 100 µM | [11] > 100 µM | [12] > 100 µM | [13] > 10 µM

CC(=O)CC(=O)OC1CC(C)CCC1C(C)C (centres undefined)
inactive: [1] > 100 µM | [2] > 100 µM | [3] 41.4 µM | [16] 73.3 µM | [4] 78.5 µM | [17] 63.4 µM | [5] 42.2 µM | [6] 54.5 µM | [7] 35 µM | [8] 96.8 µM | [9] 80.7 µM | [10] 72.8 µM | [11] 17.3 µM | [12] 47 µM | [13] 33.9 µM | [14] 96.2 µM
